Structures can show the parent of a compound that is named as a salt. Where two headings read alike, the source gives them in different places.
Target: T1, recominbant human tryptase, beta, from lung (Homo sapiens, UniProt P20231)
T1 construct: purchased Promega or Enzo Life Sciences G5631 or BML-SE418
Assay: Inhibition of tryptase activity by monomers and multimers (Boc-Gln-Ala-Arg-AMC fluorescence)
Type: biochemical
Conditions: monomers against tryptase
Protocol: Stock solutions of recominbant human tryptase, beta, from lung (Promega: catalog number G5631, or Enzo Life Sciences: catalog number BML-SE418) were made at 30 μM, in solution with 5 μM heparin sulfate and 1 M NaCl. Monomer tryptase inhibitor stock solutions were made at 50 mM in DMSO. Test substance plates were made at 1.2× the final concentration in assay buffer (50 mM HEPES, 150 mM NaCl, 100 μM EDTA, pH 7.4, 0.02% Tween-20). A final concentration of 1 nM tryptase was used. When required, test substances were diluted in water immediately before use in 10-fold serial dilutions. After the indicated incubation time, the test subtance-tryptase solution at 1.2× concentration, was diluted into assay buffer containing a final concentration of 200 μM N-tert-butoxycarbonyl-Gln-Ala-Arg-AMC HBr [AMC=7-amino-4-methylcoumarin] (Boc-Gln-Ala-Arg-AMC; Enzo Life Sciences: catalog number BML-P237) to a final volume of 50 μl in black opaque round bottom 96 well plates (Corning, catalog number 3792). The release of fluorescent AMC was immediately measured every 30 seconds over 15-30 minutes at an excitation wavelength of 367 nm, monitoring emission at 468 nm on a Spectramax M5 (Molecular Devices) microplate reader. The Softmax Pro (Molecular Devices) and Graphpad prism software were used to determine Vmax, and concentration-response curve IC50s, respectively.

[1] = read-out: IC50 range group of additional monomers (boronic acid, benzooxaborole, ligands)
[2] = Table 5, read-out: Monomer IC50 range
[3] = entry marked (1:10), read-out: IC50 range group of additional monomers marked (1:10)

T1 sequence (P20231 31-275): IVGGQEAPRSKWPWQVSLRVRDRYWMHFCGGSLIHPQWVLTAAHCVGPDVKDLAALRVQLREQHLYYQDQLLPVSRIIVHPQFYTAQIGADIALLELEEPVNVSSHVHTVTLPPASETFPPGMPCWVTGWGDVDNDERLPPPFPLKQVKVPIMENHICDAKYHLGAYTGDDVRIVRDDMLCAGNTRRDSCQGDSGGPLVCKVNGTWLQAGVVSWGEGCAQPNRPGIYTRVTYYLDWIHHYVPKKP

SMILES | IC50 [1] [nM] | IC50 [2] [nM] | IC50 [3] [nM]
NCc1cccc(C2CCN(C(=O)c3cccc(NC(=O)C4CC5CC4C(O)C5O)c3)CC2)c1 (racemic) [T139RACEENDO, (±) endo-N-(3-(4-(3-(aminomethyl)phenyl)piperidine-1-carbonyl)phenyl)-5,6-syn-dihydroxybicyclo[2.2.1]heptane-2-carboxamide] | 1000 to 10000 | – | –
NCc1cccc(C2CCN(C(=O)C3CC4CC3C(O)C4O)CC2)c1 (racemic) [T140RACEENDO, (±) endo (4-(3-(aminomethyl)phenyl)piperidin-1-yl)-(5,6-syn-dihydroxybicyclo[2.2.1]heptan-2-yl)methanone] | 1000 to 10000 | – | –
NCc1cccc(C2CCN(C(=O)c3cccc(NC(=O)C4CC5CCC4C(O)C5O)c3)CC2)c1 (racemic) [T141ENDOANTI, (±) endo-N-(3-(4-(3-(aminomethyl)phenyl)piperidine-1-carbonyl)phenyl)-5,6-anti-dihydroxybicyclo[2.2.2]octane-2-carboxemide.] | 0.1 to 1000 | – | –
NCc1cccc(C2CCN(C(=O)c3cccc(NC(=O)C4CC5CCC4C(O)C5O)c3)CC2)c1 (racemic) [T141EXOANTI, (±) exo-N-(3-(4-(3-(aminomethyl)phenyl)piperidine-1-carbonyl)phenyl)-5,6-anti-dihydroxybicyclo[2.2.2]octane-2-carboxamide.] | 1000 to 10000 | – | –
NCc1cccc(C2CCN(C(=O)c3cccc(NC(=O)C4CC5CCC4C(O)C5O)c3)CC2)c1 (racemic) [T141EXOSYN, (±) exo-N-(3-(4-(3-(aminomethyl)phenyl)piperidine-1-carbonyl)phenyl)-5,6-syn-dihydroxybicyclo[2.2.2]octane-2-carboxamide.] | 1000 to 10000 | – | –
NCc1cccc(C2CCN(C(=O)C3CC4CCC3C(O)C4O)CC2)c1 (racemic) [T142ENDOANTI, (±) endo (4-(3-(aminomethyl)phenyl)piperidin-1-yl)(-5,6-anti-dihydroxybicyclo[2.2.2]octan-2-yl)methanone] | 0.1 to 1000 | – | –
NCc1cccc(C2CCN(C(=O)C3CC4CCC3C(O)C4O)CC2)c1 (racemic) [T142ENDOSYN, (±) endo (4-(3 (aminomethyl)phenyl)piperidin-1-yl)(-5,6-syn-dihydroxybicyclo[2.2.2]octan-2-yl)methanone] | 10000 to 65000 | – | –
NCc1cccc(C2CCN(C(=O)C3CC4CCC3C(O)C4O)CC2)c1 (racemic) [T142EXOANTI, (±) endo (4-(3 (aminomethyl)phenyl)piperidin-1-yl)(-5,6-anti-dihydroxybicyclo[2.2.2]octan-2-yl)methanone] | 10000 to 65000 | – | –
NCc1ccc(C(=O)NCc2ccc(OCC(=O)N3C[C@H](O)[C@@H](O)C3)cc2)cc1 [CF1, 4-(aminomethyl)-N-(4-(2-((3S,4S)-3,4-dihydroxypyrrolidin-1-yl)-2-oxoethoxy)benzyl)benzamide hydrochloride] | – | 10000 to 65000 | –
NCc1cccc(C2CCN(C(=O)c3ccc(Cl)c(Cl)c3)CC2)c1 [CF5, (4-(3-(aminomethyl)phenyl)piperidin-1-yl)(3,4-dichlorophenyl)methanone] | – | 0.1 to 1000 | –
NCc1ccc(C(=O)NCc2ccc(OCC(=O)N3C[C@@H](O)[C@H](O)C3)cc2)cc1 [CF6, 4-(aminomethyl)-N-(4-(2-((3R,4R)-3,4-dihydroxypyrrolidin-1-yl)-2-oxoethoxy)benzyl)benzamide hydrochloride] | – | 10000 to 65000 | –
NCc1ccc(C(=O)NCc2ccc(OCC(=O)N3CC(=O)[C@H](O)C3)cc2)cc1 [CF7, (R)-4-(aminomethyl)-N-(4-(2-(3-hydroxy-4-oxopyrrolidin-1-yl)-2-oxoethoxy)benzyl)benzamide hydrochloride] | – | 1000 to 10000 | –
NCc1ccc(C(=O)NCc2ccc(OCCC(=O)N3CC(=O)[C@@H](O)C3)cc2)cc1 [CF10, (S)-4-(aminomethyl)-N-(4-(3-(3-hydroxy-4-oxopyrrolidin-1-yl)-3-oxopropoxy)benzyl)benzamide hydrochloride] | – | 10000 to 65000 | –
NCc1ccc(C(=O)NCc2ccc(OCCC(=O)N3CC(=O)[C@H](O)C3)cc2)cc1 [CF12, (R)-4-(aminomethyl)-N-(4-(3-(3-hydroxy-4-oxopyrrolidin-1-yl)-3-oxopropoxy)benzyl)benzamide hydrochloride] | – | 1000 to 10000 | –
NCc1ccc(CNC(=O)N2CCN(C(=O)CNC(=O)C(O)CO)CC2)cc1 (stereo not drawn) [CF13, N-(4-(aminomethyl)benzyl)-4-(2-(2,3-dihydroxypropanamido)acetyl)piperazine-1-carboxamide hydrochloride] | – | 1000 to 10000 | –
NCc1ccc2c(c1)C1(CCN(C(=O)c3ccc(OCC(O)CO)cc3)CC1)CO2 (stereo not drawn) [CF15, (5-(aminomethyl)-2H-spiro[benzofuran-3,4′-piperidine]-1′-yl)(4-(2,3-dihydroxypropoxy)phenyl)methanone hydrochloride] | – | 1000 to 10000 | –

SMILES | IC50 [1] [nM] | IC50 [2] [nM] | IC50 [3] [nM]
NCc1cccc(C2CCN(C(=O)c3cccc(NC(=O)NCC(O)C(F)(F)F)c3)CC2)c1 (stereo not drawn) [CF17, 1-(3-(4-(3-(aminomethyl)phenyl)piperidine-1-carbonyl)phenyl)-3-(3,3,3-trifluoro-2-hydroxypropyl)urea hydrochloride] | – | 0.1 to 1000 | –
NCc1ccc(CNC(=O)N2CCN(C(=O)CNC(=O)C(=O)CO)CC2)cc1 [CF20, N-(4-(aminomethyl)benzyl)-4-(2-(3-hydroxy-2-oxopropanamido)acetyl)piperazine-1-carboxamide] | – | 0.1 to 1000 | –
C[C@@]1(O)CN(c2cccc(C(=O)N3CCC(c4cccc(CN)c4)CC3)c2)C(=O)[C@@H]1O [CMI9317, 1-{^3-[^4-(3-aminomethyl-phenyl)-piperidine-1-carbonyl]-phenyl}-3,4-dihydroxy-4-methyl-pyrrolidin-2-one hydrochloride] | – | – | 0.1 to 1000
C[C@]1(O)CN(c2cccc(C(=O)N3CCC(c4cccc(CN)c4)CC3)c2)C(=O)[C@H]1O [CMI9321, 1-{3-[4-(3-aminomethyl-phenyl)-piperidine-1-carbonyl]-phenyl}-3,4-dihydroxy-4-methyl-pyrrolidin-2-one hydrochloride] | – | – | 0.1 to 1000
NCc1ccc2c(c1)C1(CCN(C(=O)c3ccc(O)c(O)c3)CC1)CO2 [T2SPIRO, (5-(aminomethyl)-2H-spiro[benzofuran-3,4′-piperidine]-1′-yl)(3,4-dihydroxyphenyl)methanone] | 0.1 to 1000 | 0.1 to 1000 | –
NCc1ccc(F)c(C2CCN(C(=O)c3cccc4ccc(B(O)O)cc34)CC2)c1 [T11F, 8-(4-(5-(aminomethyl)-2-fluorophenyl)piperidine-1-carbonyl)naphthalen-2-ylboronic acid] | 1000 to 10000 | 1000 to 10000 | –
NCc1cccc(C2CCN(C(=O)c3cccc(/C=C/B(O)O)c3)CC2)c1 [T14, (E)-3-(4-(3-(aminomethyl)phenyl)piperidine-1-carbonyl)styrylboronic acid] | – | 0.1 to 1000 | –
NCc1cccc(C2CCN(C(=O)c3cccc(NC(=O)C(O)C4(O)CCC4)c3)CC2)c1 (stereo not drawn) [T21 (Diol), N-(3-(4-(3-(aminomethyl)phenyl)piperidine-1-carbonyl)phenyl)-2-hydroxy-2-(1-hydroxycyclobutyl)acetamide] | 0.1 to 1000 | 0.1 to 1000 | –
NCc1cccc(C2CCN(C(=O)c3cccc(NC(=O)C(=O)C4(O)CCC4)c3)CC2)c1 [T21, N-(3-(4-(3-(aminomethyl)phenyl)piperidine-1-carbonyl)phenyl)-2-(1-hydroxycyclobutyl)-2-oxoacetamide] | – | 0.1 to 1000 | –
NCc1cccc(C2CCN(C(=O)c3cccc(OCC(=O)C4(O)CCC4)c3)CC2)c1 [T22, 2-(3-(4-(3-(aminomethyl)phenyl)piperidine-1-carbonyl)phenoxy)-1-(1-hydroxycyclobutyl)ethanone] | – | 0.1 to 1000 | –
NCc1cccc(C2CCN(C(=O)/C=C/c3ccc(O)c(O)c3)CC2)c1 [T24, (E)-1-(4-(3-(aminomethyl)phenyl)piperidin-1-yl)-3-(3,4-dihydroxyphenyl)prop-2-en-1-one hydrochloride] | 1000 to 10000 | 1000 to 10000 | –
NCc1cccc(C2CCN(C(=O)CCc3ccc(O)c(O)c3)CC2)c1 [T24Dihydro, 1-(4-(3-(aminomethyl)phenyl)piperidin-1-yl)-3-(3,4-dihydroxyphenyl)propan-1-one (TFA salt)] | 1000 to 10000 | – | –
COc1cc(/C=C/C(=O)N2CCC(c3cccc(CN)c3)CC2)ccc1O [T24MON, (E)-1-(4-(3-(aminomethyl)phenyl)piperidin-1-yl)-3-(4-hydroxy-3-methoxyphenyl)prop-2-en-1-one] | – | 1000 to 10000 | –
NCc1cccc(C2CCN(C(=O)/C=C\c3ccc(O)c(O)c3)CC2)c1 [T24cis, (Z)-1-(4-(3-(aminomethyl)phenyl)piperidin-1-yl)-3-(3,4-dihydroxyphenyl)prop-2-en-1-one] | 1000 to 10000 | 1000 to 10000 | –
NCc1cccc(C2CCN(C(=O)c3cccc(N4C[C@@H](O)[C@@H](O)C4)c3)CC2)c1 [T25B, (4-(3-(aminomethyl)phenyl)piperidin-1-yl)(3-((3S,4R)-3,4-dihydroxypyrrolidin-1-yl)phenyl)methanone] | – | 0.1 to 1000 | 0.1 to 1000
NCc1cccc(C2CCN(C(=O)c3cccc(C(=O)N4C[C@@H](O)[C@H](O)C4)c3)CC2)c1 [T26diol cis, (4-(3-(aminomethyl)phenyl)piperidin-1-yl)(3-((3R,4R)-3,4-dihydroxypyrrolidine-1-carbonyl)phenyl)methanone] | 1000 to 10000 | 1000 to 10000 | –

From patent US11970448B2, “Monomers capable of dimerizing in an aqueous solution, and methods of using same” (CORNELL UNIVERSITY, priority 2011, dated 2024)
